Laboratory results from patent publication US12325676B2, “Cationic lipid compound and composition for delivery of nucleic acids and use thereof” (Shenzhen Rhegen Biotechnology Co., Ltd., priority 2022, dated 2025).

Columns and labels:
[1] = Encapsulation rate of mRNA-loaded lipid nanoparticles (Ribogreen kit); assay type: physicochemical; details: Table 4 batch; EPO mRNA LNP prepared as Example 20
[2] = Particle size, PDI and zeta potential of mRNA-loaded lipid nanoparticles (Malvern Zetasizer nano); assay type: physicochemical
Procedure: (§1) Luciferase mRNA was diluted in 10-100 mM citrate buffer at pH 4.0; the lipid components (cationic lipids shown in the present disclosure: DSPC:cholesterol:PEG lipids (DMG-PEG2000)) were dissolved in ethanol at a molar ratio of 50:10:38.5:1.5.
(§2) 3 mL of a mRNA buffer and 1 mL of a lipid solution were loaded into two 5 mL syringes respectively, and the syringes were installed on a microfluidic syringe pump. Chips were connected to the syringes and syringe pump flow rate was set. Clicking the start button of the syringe pump caused injection into the chip at a flow rate ratio of 3:1. Under observation of the color of the product at the exit of the chip, after discarding the first 5 milky white droplets (about 100 μL), the back-end sample was collected into an EP tube. The collected product was placed in a dialysis bag and dialyzed for 6 h (MWCO: 100 KDa) in 10 mM PBS (pH 7.4) intervals. Subsequently, after being concentrated by ultrafiltration to the desired concentration, the lipid nanoparticles were filtered through a 0.22 μm sterile filter and then stored at 4° C.
(§3) Tests were performed to calculate the encapsulation rate of the products according to the instructions of Ribogreen kit. Particle size and polydispersity index (PDI) detection as well as zeta potential analysis was performed on a Malvern Zetasizer nano instrument using standard assays.

[3] = Encapsulation rate of mRNA-loaded lipid nanoparticles (Ribogreen kit); assay type: physicochemical
Procedure: as §1, §2, §3

[4] = tested on: BALB/c mice; experiment: In vivo EPO protein expression after tail i.v. injection of EPO-mRNA LNP, serum ELISA; details: 6 hours after tail i.v. injection of 20 μg EPO-mRNA-lipid nanoparticles, female Balb/c mice
Procedure: In the example, the effects of in vivo transfection of erythropoietin (EPO) by various cationic liposomes were compared. Nanoparticles were prepared in the same manner as in Example 20, and the nucleotide sequence corresponding to the EPO mRNA used is given in CN114380724B, SEQ ID NO:2. After preparation, 20 μg of EPO-mRNA-lipid nanoparticles were injected via tail intravenous injection in 6-8 week female Balb/c mice. 6 hours later the mice were subjected to blood sampling from the eye frame. After centrifugation to separate the serum, EPO protein expression was determined using ELISA. The basic characteristics of the mRNA used include ARCA cap structure, polyA tail length of 100-120 nt, and complete substitution of pseudouridine.

[5] = Particle size, PDI and zeta potential of mRNA-loaded lipid nanoparticles (Malvern Zetasizer nano); assay type: physicochemical; details: Table 4 batch; EPO mRNA LNP prepared as Example 20
[6] = tested on: BALB/c mice; experiment: In vivo expression of luciferase mRNA delivered by LNP, lung nebulization; details: LUC-mRNA LNP, 5 μg mRNA, compared with Lipid M and SM-102
Procedure: LUC-mRNA-lipid nanoparticles containing 5 μg mRNA were administrated via lung nebulization in 6-8 week old BALB/c mice, prepared as in Example 19. 100 μg of D-Luciferin Potassium Salt was injected via tail intravenous injection into the mice at specific time points and assayed using the PerkinElmer Small Animal Imaging System.

[7] = tested on: BALB/c mice; experiment: In vivo expression of luciferase mRNA delivered by LNP, tail intravenous injection, small animal imaging; details: Table 3, 5 μg mRNA, female BALB/c mice, DLin-MC3-DMA = 100
Procedure: LUC-mRNA-lipid nanoparticles containing 5 μg mRNA (see SEQ ID NO: 1 in the Patent Application Publication CN114380724A for the corresponding nucleotide sequence of LUC-mRNA) were injected via tail intravenous injection in 6-8 week old female BALB/c mice, prepared as in Example 19. 100 μg of D-Luciferin Potassium Salt was injected via tail intravenous injection into the mice at specific time points and assayed using the PerkinElmer Small Animal Imaging System. Fluc is commonly used in mammalian cell cultures to measure gene expression and cell viability, and it emits biological fluorescent light in the presence of the substrate […]. The basic characteristics of the mRNA used include ARCA cap structure, polyA tail length of 120 nt, and complete substitution of pseudouridine.
The effect of delivering luciferase mRNA using more cationic lipids were validated according to the methods of Example 20 and Example 21.

[8] = tested on: C57BL6 mice; experiment: Intratumoral injection of luciferase mRNA LNP, fluorescence of tumor and liver; assay type: in vivo; details: luciferase mRNA LNP 25 μL/2.5 μg intratumoral, B 16F 10 tumor in C57BL6 mice, imaging after 24 h (FIGS. 6 and 7)
Procedure: Different types of lipid nanoparticles encapsulating luciferase mRNA in were prepared accordance with the preparation of Example 20. Tumors were injected subcutaneously in the right abdomen of 6-8 week female C57BL6 mice at 5×10^5 B 16F 10 cells (from CAS Cell Bank, CSTR:19375.09.3101MOUTCM36)/mouse, and tumor growth was observed and recorded periodically. On the 8th day after tumor inoculation, the length (L, mm) and width (D, mm) of the tumors were measured by using a vernier caliper, and the tumor volume (V) was calculated according to the formula V=(L×D^2)/2. Mice with tumor volume in the range of 80-120 mm^3 were taken and randomly grouped, and intratumorally injected with different types of lipid nanoparticles encapsulating luciferase mRNA at the volume of 25 μL/2.5 μg. Anatomical imaging was performed after 24 h to detect the fluorescence intensity of the mouse liver and tumor (as shown in FIGS. 6 and 7). […] This indicates better in situ tumor expression and lower liver […], which is suitable for encapsulation and delivery of some tumor therapy-related nucleic acid drugs.

[9] = tested on: SD rats; experiment: Abnormal toxicity of cationic lipid nanoparticles, tail i.v. injection, liver and kidney function; assay type: in vivo; details: EPO mRNA LNP, 5 mg/kg tail intravenous injection, female SD rats
Procedure: The nanoparticles prepared in Example 27 were used in this experiment. The nanoparticles were injected via tail intravenous injection at a dose of 5 mg/kg in female SD rats weighing 200-250 g. The […] in the control group were injected with a corresponding volume of normal saline. […] Blood samples were collected at 120 h after injection, and alanine transaminase (ALT), aspartate aminotransferase (AST), urea nitrogen (BUN), and serum creatinine (SCR) were measured using a fully automated biochemistry instrument as the evaluation indexes of hepatic and renal functions.

[10] = Table 1, Luciferase mRNA LNP, cationic lipid:DSPC:cholesterol:DMG-PEG2000 50:10:38.5:1.5 molar
[11] = Table 3 batch, luciferase mRNA LNP prepared as Example 20

SMILES | Encapsulation rate (%) [1] [%] | PDI [2, 10] | Particle size (nm) [2, 10] [nm] | Zeta potential (mV) [2, 10] [mV] | PDI [2, 11] | Particle size (nm) [2, 11] [nm] | Encapsulation rate (%) [3, 10] [%] | Encapsulation rate (%) [3, 11] [%] | EPO concentration [4] [pg/mL] | PDI [5] | Particle size (nm) [5] [nm] | fluorescent levels of mRNA expression (FIG. 2) [6] | relative fluorescence intensity (%) [7] [%] | brightness (fluorescence intensity) at the tumor [8] | brightness (fluorescence intensity) in the liver [8] | death after injection (time) [9] [h]
CCCCCCCCOCC(C)C(=O)OCCCCCN(CCO)CCCCCCCC(=O)OC(CCCCCCCC)CCCCCCCC (centres unmarked) [Compound 7] | 97.8 | 0.17 | 78.9 | −3.77 | 0.15 | 82.9 | 96.1 | 96.8 | 4.21e+07 | 0.09 | 88.8 | superior to Lipid M and SM-102 | 754 ± 32 | – | – | –
CCCCCCCCC(CCCCCCCC)OC(=O)CCCCCCCN(CCO)CCCCCCCOC(=O)C(C)CSCCCCCC (centres unmarked) [Compound 51] | 95.0 | – | – | – | 0.11 | 91.0 | – | 98.0 | 6.68e+07 | 0.14 | 75.3 | – | 734 ± 51 | higher brightness at the tumor | lower brightness in the liver | –
CCCCC/C=C\C/C=C\CCCCCCCCC(CCCCCCCC/C=C\C/C=C\CCCCC)OC(=O)CCCN(C)C [DLin-MC3-DMA, reference compound] | 90.1 | 0.19 | 102.3 | −0.03 | 0.16 | 101.5 | 87.6 | – | 4.37e+06 | 0.19 | 97.6 | – | 100 | – | – | ≤ 18
